In patent US8207211B2, “Photosensitizers for targeted photodynamic therapy” (The General Hospital Corporation, priority 2005, dated 2012):

Tests used:
S. aureus = assay: Photodynamic inactivation (PDI), CFU survival, white light (red light for TBO); format: cell-based, Staphylococcus aureus; conditions: 1 μM
P. aeruginosa = assay: Photodynamic inactivation (PDI), CFU survival, 405-nm light (Example 8); format: cell-based, Pseudomonas aeruginosa
Text: Four microbial species were used in this study. Briefly, Escherichia coli was purchased from ATCC (ATCC #25922), Pseudomonas aeruginosa, two clinical isolates, were obtained; UCBP PA 14 from L. Rahme (Massachusetts General Hospital) and PA 767K from Kim Lewis (Tufts University), slime deficient mutant of Staphylococcus aureus was obtained from Gerald B Pier (Channing Laboratories). Yeast strain Candida albicans was purchased from ATCC (ATCC #18804). Exponential cultures obtained by reculturing stationary overnight cultures were used for all experiments. Bacteria were grown at 37° C. in BHI broth to a cell density of 10^8 cells per mL. C. albicans was grown 37° C. in YM medium to 10^7 cells/mL.
Six fullerene derivatives (NI1-3 and CI1-3) were evaluated. […] Concentration of fullerene derivatives used in the experiments varied between 1 and 100 μM.
Fullerene derivatives were mixed with microbial suspensions and incubated in the dark at room temperature for 10 minutes. Excess fullerenes were either washed out of, or left in, the suspensions before illumination. […]
During illumination, aliquots of 20 μL were taken to determine the colony-forming units. […] Colonies were counted and survival fraction was determined as percent of survival compared to control. […]

[1] = system: L929 murine fibroblast line; assay: Mammalian cell toxicity, MTT viability assay after illumination; format: cell-based, mouse
Text: Experiments to test the effect of functionalized fullerenes on mammalian cells can be performed in a suitable mammalian cell line. One such cell line is the L929 murine fibroblast line (ATCC #CCL1), a spontaneously transformed immortalized cell line established from the normal subcutaneous areolar and adipose tissue of a male C3H/An mouse (Earle, W. R., Schilling, E. L., Stark, T. H., Straus, N. P., Brown, M. F., and Shelton, E. (1943). Production of malignancy in vitro. IV. The mouse fibroblast cultures and changes seen in the living cells. J. Natl. Cancer Inst. 4, 165-212). In a suitable assay, these cells were cultured in Dulbecco's modified Eagle's medium (Sigma) at 37° C. in a humidified atmosphere containing 5% CO2. The medium is preferably modified by using 4 mM L-glutamine (containing 1.5 g/l sodium bicarbonate and 4.5 g/l glucose), 10% fetal bovine serum (FBS), 100 U/ml penicillin, and […] streptomycin. Cells were plated in 96-well cell culture plates, at a density of about 300 cells/well, and are allowed to attach for 24 hr.
Fullerenes and other PS, e.g., TBO, were added at a concentration of about 10 μM in 200 μl complete medium per well. After 10 min, fresh medium is added, and the cultures were illuminated with white light (for fullerenes) or with red light (for TBO). At the completion of the illumination period, cells were returned to the incubator for 24 hr. Cell viability can be determined, for example, by using the MTT-microculture tetrazolium assay, a method of assessing cellular response to PDT (Merlin, J. L., Azzi, S., Lignon, D., Ramacci, C., Zeghari, N., and Guillemin, F. (1992). MTT assays allow quick and reliable measurement of the response of human tumour cells to photodynamic therapy. Eur. J. Cancer 28A, 1452-1458. This assay involves the reduction of a colorless substrate, i.e., 3-[4,5-Dimethylthiazol-2-yl]-diphenyltetrazolium bromide (Sigma, St. Louis, […].) to an insoluble dark-blue formazan product which is formed in proportion to the amount of succinate dehydrogenase activity in the mitochondria of living cells. After incubation with MTT for periods ranging from 4 to 8 hr, the medium was aspirated from each well, and […] DMSO is added. The absorbance at 570 nm was read by a microplate reader, e.g., a Spectra Max™ 340 PC (Molecular Devices, Sunnyvale, Calif.). The fraction of cells surviving was calculated by dividing the mean absorbances of formazan produced from PDT-treated cells by the mean absorbances from dark controls incubated with PS and kept at room temperature for periods of time equal to the irradiation times.

## C[N+]1(C)Cc2c(c3c4ccc5c6ccc7c8ccc9c%10c%11c%12c(c2c2c3c3c4c5c4c6c7c5c8c9c%11c6c(c%122)c3c4c56)C2C[N+](C)(C)CC%102)C1 (stereo not drawn) [CI2]
S. aureus; 10 min, white light up to 50 J/cm^2
  PDT activity against S. aureus: effectively killed
S. aureus; with a wash, white light
  light sufficient to kill 4-5 logs of S. aureus: 2 J/cm^2
P. aeruginosa; 10-20 μM, 16 J/cm^2 of 405-nm light
  killing of P. aeruginosa: high levels of killing
P. aeruginosa; illumination with versus without a wash, 405 nm
  effect of a wash on killing of P. aeruginosa: more killing after a wash
[1]; 10 μM, 10 min, white light up to 50 J/cm^2
  toxicity to L929 mammalian cells at fluences used for PDI of pathogens: not killed
[1]; L929, high fluences
  toxicity to mammalian cells at high fluences relative to TBO: considerably less toxic
